Measurements: patent US20250134858A1, “COMPOSITIONS AND METHODS FOR TREATMENT OF NAFLD AND NASH AND RELATED DYSLIPIDEMIAS” (EpicentRx, Inc., priority 2022, published 2025)

Experiments:
Assay type in all cases: in vivo, rat
[1] = tested on: Sprague-Dawley rats fed high-fat atherogenic diet (HFD); assay: NASH markers in HFD rats: hepatic TG, hepatic TC, steatosis score, serum ALT and AST; conditions: about 5 mg/kg every other week for last 8 of 12 weeks
Description: (§1) Sprague-Dawley rats (6-weeks-old male weighing about 180 grams) were randomly divided into three groups. The first group of the rats were subjected to a normal diet (ND) for a time period of 12 weeks. The second and the third group of the rats were subjected to a high-fat atherogenic diet (HFD, 40 kcal % fat, 1.25% cholesterol, 0.5% sodium cholate) for the time period of 12 weeks. The third HFD group of the rats were treated with about 5 mg/kg of RRx-001 every other week for the last 8 weeks before characterization (“HFD-RRx-001”). Several markers of inflammation and steatosis were evaluated.
(§2) In a trial that tested for markers related to NASH, every other week administrations of RRx-001 reduced hepatic steatosis scores, serum ALT and AST levels, and hepatic levels of cholesterol and triglycerides in rats fed the HFD.

[2] = tested on: Sprague-Dawley rats fed high-fat atherogenic diet (HFD); assay: Relative LDL, HDL, TG and TC levels in rats fed a high-fat atherogenic diet
Description: as §1

NLRP3 inflammasome = assay: Serum NLRP3, IL-1β and caspase-1 levels (ELISA) in HFD rats; conditions: about 5 mg/kg every other week for last 8 of 12 weeks
Description: as §1, §2

O=C(CBr)N1CC([N+](=O)[O-])([N+](=O)[O-])C1 [RRx-001, 2-bromo-1-(3,3-dinitroazetidin-1-yl)ethan-1-one]
relative amount of hepatic TC ([1]; ND normalized to 1, HFD alone approximately 4.3, FIG. 3B): approximately 3.8 times relative to the ND rats
relative amount of hepatic TGs ([1]; ND normalized to 1, HFD alone approximately 8.2, FIG. 3A): approximately 5.7 times relative to the amounts of the ND rats
relative amount of LDL ([2]; about 5 mg/kg RRx-001 every other week for last 8 of 12 weeks, ND normalized to 1.0, HFD alone approximately 6, FIG. 1A): approximately 4 times the LDL amount of the ND rats
relative amount of HDL ([2]; about 5 mg/kg every other week for last 8 of 12 weeks, ND normalized to 1, HFD alone approximately 0.2, FIG. 1B): approximately 0.4 relative to the ND rats
relative amount of total cholesterol (TC) ([2]; about 5 mg/kg every other week for last 8 of 12 weeks, ND normalized to 1, HFD alone approximately 2.7, FIG. 1D): approximately 1.8 times relative to the ND rats
relative amount of triglycerides (TG) ([2]; about 5 mg/kg every other week for last 8 of 12 weeks, ND normalized to 1, HFD alone approximately 6.2, FIG. 1C): approximately 4.4 relative to the ND rats
relative amount of IL-1β (NLRP3 inflammasome; ND normalized to 1, HFD alone approximately 1.7, FIG. 5B): approximately 1.2 times relative to the amount in the ND rats
relative amount of serum NLRP3 (NLRP3 inflammasome; ND normalized to 1, HFD alone approximately 1.75, FIG. 5A): approximately 1.3 times relative to the rats that were fed the ND
relative amount of caspase-1 (NLRP3 inflammasome; ND normalized to 1, HFD alone approximately 2.0, FIG. 5C): approximately 1.3 times relative to the rats that were fed the ND
